Data on 25 compounds can be found in patent US20140349989A1, “COMPOUNDS AND THERAPEUTIC USES THEREOF” (Alzheimer's Institute of America, priority 2011, published 2014).

SMILES strings stand for the structures. Bounds are passed on as bounds.

One data set in a line: Cytotoxicity Assay (HCT116, CellTiter-Glo). The format is cell-based. As to conditions: human, HCT116 cell cytotoxicity IC50. The procedure:
HCT116 cells were seeded in 96 well plates (Greiner Bio-One, Monroe, N.C.) and allowed to settle overnight. Test compound dissolved in dimethyl sulfoxide (DMSO) was added and drug incubation proceeded for 72 hours. When applicable, a 1000× solution of nicotinic acid (NA; Sigma-Aldrich, St. Louis, Mo.) dissolved in water was generated, and 1×NA (10 μM final concentration) was added at the same time as the test compound. After 72 hour, 50 μL of CellTiter-Glo Luminescent Cell Viability Assay reagent (Promega Corporation, Madison, Wis.) was added to cells in 200 μL of cellular media. After a proscribed incubation period, luminescence was measured using a TopCount NXT plate reader (PerkinElmer, Waltham, Mass.).
On to `O=C(NCc1cncs1)Nc1ccc(-n2cc(CCN3CCOCC3)c3ccccc32)cc1` [Compound 63, 1-(4-{3-[2-(Morpholin-4-yl)ethyl]-1H-indol-1-yl}phenyl)-3-(1,3-thiazol-5-ylmethyl) urea], for which the concentration for half-maximal inhibition (IC50) at 72 h was not below 100 nM. On the same count and under the same terms, for `O=C(/C=C/c1ccc(-n2nc(C(=O)N3CCC(N4CCCCC4)CC3)c3ccccc32)cc1)NCc1cccnc1` [Compound 177, (2E)-3-{4-[3-(1,4′-Bipiperidin-1′-ylcarbonyl)-1H-indazol-1-yl]phenyl}-N-(pyridin-3-ylmethyl)prop-2-enamide] the value was less than 100 nM; for `O=C(NCc1ccc(Cl)nc1)Nc1ccc(-n2nc(N3CCN(C4CCCC4)CC3)c3ccccc32)cc1` [Compound 55, 1-[(6-Chloro-pyridin-3-yl)methyl]-3-{4-[3-(4-cyclopentyl-piperazin-1-yl)-1H-indazol-1-yl]phenyl}urea], not below 100 nM.

In turn, `O=C(NCc1ccc(Cl)nc1)Nc1ccc(-n2cc(CCN3CCOCC3)c3ccccc32)cc1` [Compound 128, 1-[(6-Chloro-pyridin-3-yl)methyl]-3-(4-{3-[2-(morpholin-4-yl)ethyl]-1H-indol-1-yl}phenyl)urea] displayed a half-inhibitory concentration (IC50) at 72 h of less than 100 nM.

As for `O=C(NCc1cccnc1)Nc1ccc(-n2nc(N3CCC(CN4CCOCC4)CC3)c3ccccc32)cc1` [Compound 62, 1-(4-{3-[4-(Morpholin-4-ylmethyl)piperidin-1-yl]-1H-indazol-1-yl}phenyl)-3-(pyridin-3-ylmethyl)urea], the IC50 at 72 h is less than 100 nM. On to `CC(C)(C)OC(=O)N1CCC(n2cc(CCCCCCNC(=O)NCc3cccnc3)c3ccccc32)CC1` [Compound 123, tert-Butyl 4-[3-(6-{[(pyridin-3-ylmethyl)carbamoyl]amino}hexyl)-1H-indol-1-yl]piperidine-1-carboxylate], for which the half-inhibitory concentration (IC50) at 72 h is not below 100 nM. `O=C(NCc1cccnc1)Nc1ccc(-n2c(Cl)c(C(=O)N3CCC(n4ccnc4)CC3)c3ccccc32)cc1` [Compound 127, 1-[4-(2-Chloro-3-{[4-(1H-imidazol-1-yl)piperidin-1-yl]carbonyl}-1H-indol-1-yl)phenyl]-3-(pyridin-3-ylmethyl)urea] had an IC50 at 72 h of less than 100 nM.

Still in this data set, the particulars now being: human, HCT116 cells, 72 hours drug incubation, CellTiter-Glo luminescence; read-out: HCT116 cell cytotoxicity IC50.
On to `CCOC(=O)c1cn(CCCCNC(=O)NCc2cccnc2)c2ccccc12` [Compound 45, Ethyl 1-(4-{[(pyridin-3-ylmethyl)carbamoyl]amino}butyl)-1H-indole-3-carboxylate], for which the IC50 at 72 h was less than 100 nM. With `O=C(NCc1cccnc1)Nc1ccc(N2CC3(CCN(C4CCCC4)CC3)c3ccccc32)cc1` [Compound 117, 1-[4-(1′-Cyclo-pentylspiro[indole-3,4′-piperidin]-1(2H)-yl)phenyl]-3-(pyridin-3-ylmethyl)urea], the 50% inhibitory concentration (IC50) at 72 h is less than 100 nM. On the same count and under the same terms, for `O=C(/C=C/c1ccc(-n2cc(CCN3CCCOCC3)c3ccccc32)cc1)NCc1cccnc1` [Compound 181, (2E)-3-(4-{3-[2-(1,4-Oxazepan-4-yl)ethyl]-1H-indol-1-yl}phenyl)-N-(pyridin-3-ylmethyl)prop-2-enamide] the value was less than 100 nM. Still for that read-out and setting: for `Cc1c(Cc2ccccc2)c(C(=O)N2CCC(N3CCCCC3)CC2)nn1-c1ccc(NC(=O)NCc2cccnc2)cc1` [Compound 46, 1-{4-[4-Benzyl-3-(1,4′-bipiperidin-1′-ylcarbonyl)-5-methyl-1H-pyrazol-1-yl]phenyl}-3-(pyridin-3-ylmethyl)urea] the value was less than 100 nM.

Turning to `O=C(NCc1cccnc1)N[C@H]1CC[C@H](n2cc(C(=O)N3CCN(C4CCCCC4)CC3)c3ccccc32)CC1` [Compound 37, 1-(trans-4-{3-[(4-Cyclohexyl-piperazin-1-yl)carbonyl]-1H-indol-1-yl}cyclohexyl)-3-(pyridin-3-ylmethyl)urea], the concentration for half-maximal inhibition (IC50) at 72 h is less than 100 nM. Same read-out and setting: for `O=C(NCCCCC(=O)c1cn(C2CCNCC2)c2ccccc12)NCc1cccnc1` [Compound 90, 1-{5-Oxo-5-[1-(piperidin-4-yl)-1H-indol-3-yl]pentyl}-3-(pyridin-3-ylmethyl)urea] the value was less than 100 nM; for `O=C(/C=C/c1ccc(-n2cc(CCN3CCCC3)c3ccccc32)cc1)NCc1cccnc1` [Compound 174, (2E)-N-(Pyridin-3-ylmethyl)-3-(4-{3-[2-(pyrrolidin-1-yl)ethyl]-1H-indol-1-yl}phenyl)prop-2-enamide], less than 100 nM; for `CN(c1nn(-c2ccc(NC(=O)NCc3cccnc3)cc2)c2ccccc12)C1CCNC1` (stereo not shown) [Compound 76, 1-(4-{3-[Methyl (pyrrolidin-3-yl)amino]-1H-indazol-1-yl}phenyl)-3-(pyridin-3-ylmethyl)urea], less than 100 nM. The same measure, in the same setting: under `O=C(NCCCn1cc(C(=O)NCCCN2CCCC2)c2ccccc21)NCc1cccnc1` [Compound 59, 1-(3-{[(Pyridin-3-ylmethyl)carbamoyl]amino}propyl)-N-[3-(pyrrolidin-1-yl)propyl]-1H-indole-3-carboxamide] stands not below 100 nM; under `CC(C)N(CCc1cn(-c2ccc(/C=C/C(=O)NCc3cccnc3)cc2)c2ccccc12)C(C)C` [Compound 163], less than 100 nM; under `O=C(NCc1cccnc1)Nc1ccc(-n2nc(CC(=O)N3CCCCC3)c3ccccc32)cc1` [Compound 84, 1-(4-{3-[2-Oxo-2-(piperidin-1-yl)ethyl]-1H-indazol-1-yl}phenyl)-3-(pyridin-3-ylmethyl)urea], less than 100 nM. Still for that read-out and setting: for `O=C(NCc1cccnc1)Nc1ccc(-n2cc(-c3nccn3CCN3CCCCC3)c3ccccc32)cc1` [Compound 52, 1-[4-(3-{1-[2-(Piperidin-1-yl)ethyl]-1H-imidazol-2-yl}-1H-indol-1-yl)phenyl]-3-(pyridin-3-ylmethyl)urea] the value was less than 100 nM; for `O=C(NCc1cccnc1)Nc1ccc(-n2nc(N3CCN(C4COC4)CC3)c3ccccc32)cc1` [Compound 114, 1-(4-{3-[4-(Oxetan-3-yl)piperazin-1-yl]-1H-indazol-1-yl}phenyl)-3-(pyridin-3-ylmethyl)urea], less than 100 nM; for `O=C(/C=C/c1ccc(-n2nc(C(=O)N3CCC(N4CCOCC4)C3)c3ccccc32)cc1)NCc1cccnc1` (stereo not shown) [Compound 170, (2E)-3-[4-(3-{[3-(Morpholin-4-yl)pyrrolidin-1-yl]carbonyl}-1H-indazol-1-yl)phenyl]-N-(pyridin-3-ylmethyl)prop-2-enamide], less than 100 nM. As for `O=C(NCc1cccnc1)Nc1ccc(-n2cc(C3CCN(CCF)CC3)c3ccccc32)cc1` [Compound 99, 1-(4-{3-[1-(2-Fluoroethyl)piperidin-4-yl]-1H-indol-1-yl}phenyl)-3-(pyridin-3-ylmethyl)urea], the 50% inhibitory concentration (IC50) at 72 h is less than 100 nM. Same read-out and setting: under `CCN1CCN(C(=O)c2cn(CCCCCNC(=O)NCc3cncs3)c3ccccc23)CC1` [Compound 113, 1-(5-{3-[(4-Ethylpiperazin-1-yl)carbonyl]-1H-indol-1-yl}pentyl)-3-(1,3-thiazol-5-ylmethyl) urea] stands less than 100 nM; under `CN1CCN(C(=O)Cc2cn(-c3ccc(NC(=O)NCc4cccnc4)cc3)c3ccccc23)CC1` [Compound 101, 1-(4-{3-[2-(4-Methylpiperazin-1-yl)-2-oxoethyl]-1H-indol-1-yl}phenyl)-3-(pyridin-3-ylmethyl)urea], less than 100 nM; under `O=C(NCCCCn1cc(C(=O)N2CCC(N3CCCCC3)CC2)c2ccccc21)NCc1cccnc1` [Compound 57, 1-{4-[3-(1,4′-Bipiperidin-1′-yl-carbonyl)-1H-indol-1-yl]butyl}-3-(pyridin-3-ylmethyl) urea], less than 100 nM.
